Assay results reported in patent publication US20260144798A1, “Disruption of Vascular Smooth Muscle Relaxation by Carfilzomib May be the Primary Reason for CFZ-Induced Vascular Dysfunction” (AMGEN INC., priority 2019, published 2026).

Assays:
[1] = test system: rat aortic rings; assay: Vasopressor-induced contraction of rat aortic rings, myograph
Description: An isometric myograph (DMT 620M) was used for ex vivo measurement of vascular function. Eight-to 10-week old Sprague Dawley rats (purchased from Charles River Laboratories, Wilmington, MA) were first anesthetized with 3% isoflurane and then euthanized using inhaled desflurane. The aortas were isolated in an ice-cold, oxygenated (95% O2, 5% CO2) Krebs-Henseleit buffer (118.3 mM NaCl, 4.7 mM KCl, 1.2 mM MgSO4, 1.2 mM KH2PO4, 2.5 mM CaCl2, 25 mM NaHCO3, and 11.0 mM glucose; purchased from Sigma-Aldrich, St. Louis, MO). […] The tension of the aortic rings was continuously measured with the Lab Chart 7 data acquisition system (ADInstruments, Colorado Springs, CO). […]
(§1) To assess the effect of CFZ on vascular contraction, the aortic rings were pre-treated with or without CFZ for 2 hours, followed by treatment with an increasing concentration of phenylephrine (PE) from 10 nM to 1 μM. […] The contraction was continuously measured and plotted as percent contraction normalized to the response of KPSS. […] The relaxation was continuously measured and plotted as percent relaxation normalized to the response with 1 μM PE.

[2] = test system: sGC-β; assay: Western blot of sGC-β in rat aortic smooth muscle cells; type: cell-based; conditions: CFZ for more than 12 hours (FIG. 4A)
Description: Each cell pellet was lysed in 50 to 70 μL RIPA buffer (Cell Signaling Technology, Danvers, MA) with the Halt™ protease and phosphatase inhibitor cocktail (Thermo Fisher Scientific). Lysates were quantitated and loaded onto the Li-COR Western blot system. Antibodies specific to phosphorylated eNOS and eNOS from Thermo Fisher Scientific, anti-Guanylyl Cyclase β1 (ER-19) (Sigma-Aldrich), and β-Actin (Sigma-Aldrich) were diluted 1:1000 for Western blot. Antibodies specific to p-VASP, VASP, and GADPH-HRP were purchased from Cell Signaling Technology.

[3] = test system: mice; conditions: depending on dosage and administration schedule; cited from earlier work
[4] = test system: rat aortic rings; assay: sGC activator (cinaciguat, riociguat)-induced relaxation of rat aortic rings; conditions: cinaciguat or riociguat (FIG. 4C)
Description: An isometric myograph (DMT 620M) was used for ex vivo measurement of vascular function. Eight-to 10-week old Sprague Dawley rats (purchased from Charles River Laboratories, Wilmington, MA) were first anesthetized with 3% isoflurane and then euthanized using inhaled desflurane. The aortas were isolated in an ice-cold, oxygenated (95% O2, 5% CO2) Krebs-Henseleit buffer (118.3 mM NaCl, 4.7 mM KCl, 1.2 mM MgSO4, 1.2 mM KH2PO4, 2.5 mM CaCl2, 25 mM NaHCO3, and 11.0 mM glucose; purchased from Sigma-Aldrich, St. Louis, MO). The thoracic aorta was carefully cleaned to remove perivascular fat and cut into 2-mm rings that were mounted between two stainless steel wires in the myograph chamber containing 8 mL of Krebs-Henseleit buffer in 95% O2 and 5% CO2 at 37° C. First, the rings were equilibrated in the chamber for 20 minutes, followed by a gradual increase of mechanical stretch until a final stretch of 10 mN (Newton) was reached. After an additional incubation with fresh buffer for 30 minutes, the rings were constricted with 8 mL of 80 mM KPSS (43 mM NaCl, 80 mM KCl, 2.5 mM CaCl2, 1.2 mM MgSO4, 1.2 mM KH2PO4, 25.0 mM NaHCO3, and 11.0 mM glucose) for 15 to 20 minutes, followed by 3 washes with the Krebs-Henseleit buffer until the force returned to the baseline stretch. The tension of the aortic rings was continuously measured with the Lab Chart 7 data acquisition system (ADInstruments, Colorado Springs, CO). […] The tension of the aortic rings was continuously measured with the Lab Chart 7 data acquisition system (ADInstruments, Colorado Springs, CO).
as §1

[5] = test system: GUCY1A3; assay: GUCY1A3 gene expression by RT-PCR in human aortic smooth muscle cells; type: cell-based; conditions: 24-hour treatment, 2.7 μM CFZ, SMCs (FIG. 4B)
Description: To confirm whether results could be replicated in human tissue, human aortic smooth muscle cells (Lonza, Walkersville, MD) were cultured in SmGM-2™ Smooth Muscle Cell Growth Medium-2 BulletKit™ (Lonza). The cells were maintained at 37° C. in a humidified incubator with 5% CO2. Cells were seeded at a concentration of 2.5×10^5 cells/mL of medium. After 1 day of culture, fresh medium with or without 2.7 μM CFZ was added and incubated for 6 or 24 hours.
Cell pellets were lysed in Buffer RLT (Qiagen, Germantown, MD) supplemented with β-mercaptoethanol (Bio-Rad, Hercules, CA). RNA was isolated and purified using QIAcube (Qiagen). The RNA concentration and quality were determined by NanoDrop 8000 spectrophotometer (Thermo Fisher Scientific, Wilmington, DE). DNA contaminant was removed through DNase I (Promega, Madison, WI) digestion prior to quantitative RT-PCR. Quantitative RT-PCR was performed in the QuantStudio 7 Flex RT-PCR system (Thermo Fisher Scientific) with RNA-to-CT 1-Step Kit (Thermo Fisher Scientific) and TaqMan assays (Applied Biosystems, Foster City, CA). The TaqMan assays were GUCY1A3(Hs01015574_m1) and 18S rRNA. Multiplex reactions were run in triplicates with the genes of interest and 18S rRNA normalization control. The average relative quantities were calculated from three separate experiments.

[6] = test system: isolated rabbit hearts and aortic strips; conditions: cited from earlier work
[7] = test system: VASP; assay: Western blot of p-VASP (S239) in rat thoracic aortic tissue; conditions: CFZ treatment vs vehicle control (FIG. 6A)
Description: Each cell pellet was lysed in 50 to 70 μL RIPA buffer (Cell Signaling Technology, Danvers, MA) with the Halt™ protease and phosphatase inhibitor cocktail (Thermo Fisher Scientific). Lysates were quantitated and loaded onto the Li-COR Western blot system. Antibodies specific to phosphorylated eNOS and eNOS from Thermo Fisher Scientific, anti-Guanylyl Cyclase β1 (ER-19) (Sigma-Aldrich), and β-Actin (Sigma-Aldrich) were diluted 1:1000 for Western blot. Antibodies specific to p-VASP, VASP, and GADPH-HRP were purchased from Cell Signaling Technology. […] The number of measurements is indicated by “n.” #denotes P<0.05 (red vs. blue).

[8] = test system: rat aortic rings; assay: Acetylcholine-induced relaxation of phenylephrine-precontracted rat aortic rings
Description: An isometric myograph (DMT 620M) was used for ex vivo measurement of vascular function. Eight-to 10-week old Sprague Dawley rats (purchased from Charles River Laboratories, Wilmington, MA) were first anesthetized with 3% isoflurane and then euthanized using inhaled desflurane. The aortas were isolated in an ice-cold, oxygenated (95% O2, 5% CO2) Krebs-Henseleit buffer (118.3 mM NaCl, 4.7 mM KCl, 1.2 mM MgSO4, 1.2 mM KH2PO4, 2.5 mM CaCl2, 25 mM NaHCO3, and 11.0 mM glucose; purchased from Sigma-Aldrich, St. Louis, MO). The thoracic aorta was carefully cleaned to remove perivascular fat and cut into 2-mm rings that were mounted between two stainless steel wires in the myograph chamber containing 8 mL of Krebs-Henseleit buffer in 95% O2 and 5% CO2 at 37° C. First, the rings were equilibrated in the chamber for 20 minutes, followed by a gradual increase of mechanical stretch until a final stretch of 10 mN (Newton) was reached. After an additional incubation with fresh buffer for 30 minutes, the rings were constricted with 8 mL of 80 mM KPSS (43 mM NaCl, 80 mM KCl, 2.5 mM CaCl2, 1.2 mM MgSO4, 1.2 mM KH2PO4, 25.0 mM NaHCO3, and 11.0 mM glucose) for 15 to 20 minutes, followed by 3 washes with the Krebs-Henseleit buffer until the force returned to the baseline stretch. The tension of the aortic rings was continuously measured with the Lab Chart 7 data acquisition system (ADInstruments, Colorado Springs, CO). In Some of the experiments the aortic rings were pre-treated with 100 μM N(gamma)-nitro-L-arginine methyl ester (L-NAME; Sigma-Aldrich) and 10 μM indomethacin for 10 minutes prior to the pre-incubation with CFZ (Amgen Inc.) for 2 hours. After an additional incubation with fresh buffer for 30 minutes, the rings were constricted with 8 mL of 80 mM KPSS (43 mM NaCl, 80 mM KCl, 2.5 mM CaCl2, 1.2 mM MgSO4, 1.2 mM KH2PO4, 25.0 mM NaHCO3, and 11.0 mM glucose) for 15 to 20 minutes, followed by 3 washes with the Krebs-Henseleit buffer until the force returned to the baseline stretch. The tension of the aortic rings was continuously measured with the Lab Chart 7 data acquisition system (ADInstruments, Colorado Springs, CO).
For assessment of the effect of CFZ on vascular relaxation, the pre-treated aortic rings were incubated with 1 μM PE for 20 minutes to induce contraction. For experiments involving sildenafil and tadalafil, a 10-minute pre-treatment with 30 nM of these smooth muscle relaxants was done prior to the incubation with CFZ. After reaching a stable contraction, ACh, sodium nitroprusside (SNP), nifedipine, riociguat, or cinaciguat was added to the chamber at an increasing concentration from 100 pM to 10 μM; each stepwise concentration increase was added after the response to the current concentration reached a plateau. The relaxation was continuously measured and plotted as percent relaxation normalized to the response with 1 μM PE.
Aortas were isolated from 8-10 week old CD® (Sprague Dawley) rats (from Charles River Laboratories) in an ice-cold, oxygenated (95% O2, 5% CO2) Krebs-Henseleit buffer. The aortas were then carefully cleaned to remove perivascular fat and cut into 2-mm rings that were mounted between two stainless steel wires in the myograph chamber containing 8 mL of Krebs-Henseleit buffer in 95% O2 and 5% CO2 at 37° C. Rings were stretch until a final stretch of 10 mN (Newton) was reached and incubated for 30 mins for equilibration.

CC(C)C[C@H](NC(=O)[C@H](CCc1ccccc1)NC(=O)CN1CCOCC1)C(=O)N[C@@H](Cc1ccccc1)C(=O)N[C@@H](CC(C)C)C(=O)[C@@]1(C)CO1 [CFZ, carfilzomib]
effect on phenylephrine-induced vascular contraction ([1]; CFZ 0.3, 0.9 or 2.7 μM, increasing phenylephrine (FIG. 1C)): No significant CFZ effect on vascular contraction
effect on potassium chloride-induced vascular contraction ([1]; CFZ vs vehicle, increasing potassium chloride (FIG. 1D)): No significant CFZ effect on vascular contraction
sGC-β protein level [2]: increased with increasing exposure to CFZ
effect on AMPKα/mTORC1 and PI3K/Akt/eNOS pathways [3]: inhibit AMPKα/mTORC1 pathways
effect on VSM relaxation in the presence of sGC activators [4]: did not interfere with VSM relaxation
upregulation of GUCY1A3 gene expression [5]: more than 25 fold
coronary perfusion pressure, resting vascular tone, and spasmogenic effects [6]: increased
vasodilating effect induced by acetylcholine (ACh) [6]: sharply reduced
level of p-VASP [7]: reduced level of p-VASP compared with the vehicle control
EC50 for ACh-induced relaxation, CFZ alone ([8]; FIG. 5B experiment, vehicle alone 1.9×10^−8): 7.3×10^−8
EC50 for ACh-induced relaxation ([8]; in the presence of CFZ 2.7 μM, vehicle alone 3.2×10^−8 (FIG. 2A)): 1.4×10 ^−7
effect on ACh-induced relaxation (percent relaxation) ([8]; increasing CFZ concentrations, high concentrations of ACh (FIG. 2A)): significantly compromised
